For one assay, the system named is Phytophthora capsici. In words: Antifungal activity against Phytophthora capsici NBRC 30696 after 22 to 24 hrs by paper disk diffusion method. In kind it is functional, organism-based.
The next assay deals with B16. Nature of the assay: Cytotoxicity against mouse B16 cells assessed as cell viability after 48 hrs by MTT assay. The assay is classed as functional, cell-based. The note with it: B16, 48 h.

Activity calls are given as the source filed them. No cut-off for these calls is given here.

Consider `CC1=C(/C=C/CCC/C=C/CO)C(=O)OC1=O`, for which the result in the assay with Phytophthora capsici was inactive.

As for `CCCCCC/C=C/C1=C(C)C(=O)OC1=O`, in the assay with Phytophthora capsici, the outcome was Active. Besides, the IC50 in the assay on B16 was found to be 80 µM. As for `C=C(C(=O)O)/C(=C\CCCC[C@@H](O)CC)C(=O)O`, the outcome in the assay on Phytophthora capsici was Active. The same measure, in the same setting: under `C=C(C(=O)O)/C(=C\CCCCCCCO)C(=O)O` stands “Active”; under `CC1=C(/C=C/CCCCC(C)O)C(=O)OC1=O` (stereo unspecified), “inactive”. With `CC(=O)O[C@H]1C(=O)[C@@]2(C)[C@H]([C@H](OC(=O)c3ccccc3)[C@]3(O)C[C@H](OC(=O)[C@H](O)[C@@H](NC(=O)c4ccccc4)c4ccccc4)C(C)=C1C3(C)C)[C@]1(OC(C)=O)CO[C@@H]1C[C@@H]2O` [PACLITAXEL], the IC50 with B16 was 56 µM.

In the case of `CCCCCC/C=C/C(C(=O)OC)=C(\C)C(=O)OC`, in the assay with Phytophthora capsici, the result was Active. Further, the IC50 in the assay on B16 is 30 µM. Consider `CC1=C(/C=C/CCC/C=C/C(=O)O)C(=O)OC1=O`, for which the outcome with Phytophthora capsici was Active. Consider `C[C@@H]1[C@H](O)[C@@H](C)/C=C/C=C/C=C/C=C/C=C/C=C/C=C/[C@H](O[C@@H]2O[C@H](C)[C@@H](O)[C@H](N)[C@@H]2O)C[C@@H]2O[C@](O)(C[C@@H](O)C[C@@H](O)[C@H](O)CC[C@@H](O)C[C@@H](O)CC(=O)O[C@H]1C)C[C@H](O)[C@H]2C(=O)O`, for which, in the assay with Phytophthora capsici, the outcome was Active.

The record behind these values is ChEMBL document CHEMBL3580641, “Bioactive Maleic Anhydrides and Related Diacids from the Aquatic Hyphomycete Tricladium castaneicola” (J Nat Prod, 2015).
